Reference: publication PMC7961618, “Inhibitor Development against p7 Channel in Hepatitis C Virus” (Molecules, 2021)

Biological target: p7 (5a) protein (Hepatitis C virus genotype 5a (Hepacivirus hominis), UniProt O39928, A759S/C749A/C774T/C791S/T748G)
Sequence (O39928 748-810 T748G/C749A/A759S/C774T/C791S): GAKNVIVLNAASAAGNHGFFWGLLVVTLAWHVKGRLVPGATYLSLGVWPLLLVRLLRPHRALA
Assay: NMR titration (2D 1H-15N TROSY-HSQC chemical shift perturbation) for Kd
Format: binding
Details: apparent Kd from chemical shift changes of Val7 or Leu8; 0.1 mM 15N-p7 (5a) in 20 mM DPC, 30 °C; read-out: Kd GT5a
`NC(CNC(=O)CCOCCOCCOCCOCCOCCOCCOCCC(=O)NCC(N)C12CC3CC(CC(C3)C1)C2)C12CC3CC(CC(C3)C1)C2` (stereo not shown) [ARD84] gave a Kd of 58 µM. Compound `NC(CNC(=O)CCOCCOCCOCCOCCOCCOCCC(=O)NCC(N)C12CC3CC(CC(C3)C1)C2)C12CC3CC(CC(C3)C1)C2` (stereo not shown) [ARD83] has a Kd of 70 µM. With `CNC(CO)C12CC3CC(CC(C3)C1)C2` (stereo not shown) [ARD6] the Kd was 344 µM. `CNC(=O)C(NC)C12CC3CC(CC(C3)C1)C2` (stereo not shown) [ARD9] showed a Kd of 418 µM. Work on `NC(CNC(=O)CCOCCOCCOCCC(=O)NCC(N)C12CC3CC(CC(C3)C1)C2)C12CC3CC(CC(C3)C1)C2` (stereo not shown) [ARD80] yielded a Kd of 102 µM. With `CNC(C(N)=O)C12CC3CC(CC(C3)C1)C2` (stereo not shown) [ARD8] the Kd was 707 µM. For `CCC(NC)C12CC3CC(CC(C3)C1)C2` (stereo not shown) [ARD2], the Kd was 334 µM. In the case of `OCC1(CNCc2cc(C3CC3)on2)C2CC3CC(C2)CC1C3` (stereo not shown) [ARD101], the Kd is reported as 105 µM. For `Oc1ccc(CNC23CC4CC(CC(C4)C2)C3)c(O)c1` [ARD89], the Kd was 112 µM. Compound `Cc1cc(CNCC2(CO)C3CC4CC(C3)CC2C4)ccn1` (stereo not shown) [ARD99] has a Kd of 852 µM. For `OCC1(CNCc2cc(-c3ccccc3)on2)C2CC3CC(C2)CC1C3` (stereo not shown) [ARD98], the Kd was 102 µM. Work on `NC(C(F)F)C12CC3CC(CC(C3)C1)C2` (stereo not shown) [ARD71] yielded a Kd of 2460 µM. `Cc1ccc(CNCC2(CO)C3CC4CC(C3)CC2C4)cn1` (stereo not shown) [ARD100] gave a Kd of 107 µM. `CCNC(C)C12CC3CC(CC(C3)C1)C2` (stereo not shown) [ARD1] gave a Kd of 487 µM. `NC(CNC(=O)CCOCCOCCOCCOCCC(=O)NCC(N)C12CC3CC(CC(C3)C1)C2)C12CC3CC(CC(C3)C1)C2` (stereo not shown) [ARD81] showed a Kd of 81 µM. For `CC1(NCc2nnc(-c3cc(O)cc(O)c3)[nH]2)C2CC3CC(C2)CC1C3` (stereo not shown) [ARD112], the Kd was 5 µM.

Same assay, conditions: from NMR Kd values, p7 (5a)
In the case of `CC1(NCc2nnc(-c3cc(O)cc(O)c3)[nH]2)C2CC3CC(C2)CC1C3` (stereo not shown) [ARD112], the “binding strength relative to the best dimeric compound ARD87” value is reported as ~ 10 fold.

Same assay, conditions: read-out: Kd GT5a
`NC(CNC(=O)CCOCCC(=O)NCC(N)C12CC3CC(CC(C3)C1)C2)C12CC3CC(CC(C3)C1)C2` (stereo not shown) [ARD87] showed a Kd of 43 µM. Work on `CC(N)C12CC3CC(CC(C3)C1)C2` (stereo not shown) [Rimantadine, reference compound] yielded a Kd of 98 µM.

System: HCV (JFH1 strain with adaptive mutations)
Assay: not given
Format: cell-based
Details: 20 μM; supernatant at 2, 6, 12 and 24 h post-incubation
For `NC(CNC(=O)CCOCCC(=O)NCC(N)C12CC3CC(CC(C3)C1)C2)C12CC3CC(CC(C3)C1)C2` (stereo not shown) [ARD87], the “viral production kinetics versus mock control” value was “suppress the viral production”. For `CC(N)C12CC3CC(CC(C3)C1)C2` (stereo not shown) [Rimantadine, reference compound], the “viral production kinetics versus mock control” value was “suppress the viral production”. In the case of `CC1(NCc2nnc(-c3cc(O)cc(O)c3)[nH]2)C2CC3CC(C2)CC1C3` (stereo not shown) [ARD112], the “viral production kinetics versus mock control” value is reported as “suppress the viral production”.

Same assay, conditions: Huh7.5.1 cells, JFH1, 12 h
In the case of `NC(CNC(=O)CCOCCC(=O)NCC(N)C12CC3CC(CC(C3)C1)C2)C12CC3CC(CC(C3)C1)C2` (stereo not shown) [ARD87], the “IC50 against HCV compared with Rim” value is reported as “about two-fold lower than that of Rim”. For `CC1(NCc2nnc(-c3cc(O)cc(O)c3)[nH]2)C2CC3CC(C2)CC1C3` (stereo not shown) [ARD112], the “IC50 against HCV compared with Rim” value was “about two-fold lower than that of Rim”.

System: HCV
Assay: not given
Design: method as in PMID 18828153
Details: cited from earlier work
For `CC(N)C12CC3CC(CC(C3)C1)C2` (stereo not shown) [Rimantadine, reference compound], the anti-HCV activity is given as “moderate anti-HCV activity”.

System: hepatoma cell lines
Assay: not given
Design: method as in PMID 18828153
Details: cited from earlier work
For `CC(N)C12CC3CC(CC(C3)C1)C2` (stereo not shown) [Rimantadine, reference compound], the “cytotoxicity against hepatoma cell lines” value is given as “no significant cytotoxicity”.

System: HCV genotype 3
Assay: not given
Design: method as in PMID 27783808
Details: cited from earlier work
For `NC12CC3CC(CC(C3)C1)C2` [Amantadine], the “inhibition of genotype 3” value is given as “could not inhibit genotype 3”.

System: not listed separately
Assay: CellTiter-Glo cell viability and cytotoxicity assay
Details: human, Huh7.5.1 cells
Experimental: (§1) (B) After incubation with each compound, the cell viability and cytotoxicity were detected by CellTiter-Glo® Luminescent Cell Viability Assay reagent (Promega GS7570, Madison, WI, USA). […] Data were presented as the percentage of mock treatment control. […] Two independent experiments were repeated showing similar results.
(§2) Cell viability and cytotoxicity were detected by CellTiter-Glo® Luminescent Cell Viability Assay reagent (Promega GS7570, Madison, WI, USA). Briefly, Huh7.5.1 cells were seeded at a density of 80,000 cells per well in 24-well microplates and allowed to attach and grow overnight. The next day, the cell-culture media with serially diluted compounds in 0.5% DMSO or mock were added to the cells. After 12 h of incubation, cells were collected and lysed for the cell cytotoxicity assay.
Work on `CC(N)C12CC3CC(CC(C3)C1)C2` (stereo not shown) [Rimantadine, reference compound] yielded a CC50 at 12 h greater than 100 µM. Work on `CC1(NCc2nnc(-c3cc(O)cc(O)c3)[nH]2)C2CC3CC(C2)CC1C3` (stereo not shown) [ARD112] yielded a CC50 at 12 h greater than 100 µM.

System: Huh7.5.1 cells
Assay: as above
Details: 12 h incubation
Experimental: as §1, §2
With `NC(CNC(=O)CCOCCC(=O)NCC(N)C12CC3CC(CC(C3)C1)C2)C12CC3CC(CC(C3)C1)C2` (stereo not shown) [ARD87] the “cytotoxicity compared with Rim” value was “significantly higher than Rim”. For `CC1(NCc2nnc(-c3cc(O)cc(O)c3)[nH]2)C2CC3CC(C2)CC1C3` (stereo not shown) [ARD112], the “cytotoxicity compared with Rim” value was “comparable to Rim”.
